The values below come from patent US20230391774A1, “Novel Compounds” (AC Immune SA, priority 2020, published 2023).

pEC50: −log10 of the molar value. A value given as a limit tells only on which side of the number the result lay.

For the assay, the target named is T1, flTau aggregates (longest isoform of human Tau, 2N4R) (Homo sapiens, UniProt P10636).
T1 construct: 35 μM of recombinant full-length (fl) Tau in phosphate-buffered saline (PBS) were aggregated; purchased Biotechne; host or cells: bacteria
T1 sequence (P10636 1-441 isoform P10636-8): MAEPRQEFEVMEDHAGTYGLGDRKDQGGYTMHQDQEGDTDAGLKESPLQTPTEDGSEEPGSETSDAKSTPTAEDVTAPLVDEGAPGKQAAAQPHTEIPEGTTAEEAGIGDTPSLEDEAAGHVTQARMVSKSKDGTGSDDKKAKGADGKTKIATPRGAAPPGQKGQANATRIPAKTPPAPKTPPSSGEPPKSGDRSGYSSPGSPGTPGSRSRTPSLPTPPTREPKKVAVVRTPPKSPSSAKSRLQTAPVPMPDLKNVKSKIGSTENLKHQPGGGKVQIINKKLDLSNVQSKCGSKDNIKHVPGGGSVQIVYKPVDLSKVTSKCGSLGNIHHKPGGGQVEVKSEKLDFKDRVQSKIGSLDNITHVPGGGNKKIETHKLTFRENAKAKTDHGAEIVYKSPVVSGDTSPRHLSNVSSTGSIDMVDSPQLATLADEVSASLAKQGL
Description: Full-length Tau (flTau) disaggregation assay by Thioflavin T (ThT). It counts as biochemical. Conditions: ThT fluorescence; 60 nM flTau aggregates, 30 minutes at RT; read-out: flTau disaggregation EC50. As to the method:
Full-Length Tau (flTau) Disaggregation Assay by Thioflavin T (ThT)
The longest isoform of human Tau (2N4R; 441 amino acids) was expressed in bacteria and purified (Biotechne). For the Tau disaggregation assay by ThT, 35 μM of recombinant full-length (fl) Tau in phosphate-buffered saline (PBS) were aggregated for 72 hours at 37° C. in presence of 35 μM of heparin (Sigma-Aldrich) and 10 mM of […] (Sigma-Aldrich) under shaking at 1000 RPM. Compound 1 was dissolved in anhydrous dimethyl sulfoxide (DMSO, Sigma-Aldrich) to reach a concentration of 2.5 mM. flTau aggregates and serial dilutions of compound 1 were mixed together in PBS (volume 50 μL) to a final concentration of 60 nM of flTau aggregates and from 20 to 0.0012 μM of Compound 1. The mixture was incubated for 30 minutes at room temperature (RT), then 40 μL of this mixture were transferred into a black 384-well plate assay (Perkin-Elmer) and mixed with 10 μL of 20 μM ThT in 250 mM glycine (both from Sigma-Aldrich) in PBS. Fluorescence (relative fluorescence units; RFU) was measured in monoplicate or duplicate on a Tecan reader (excitation: 440 nm; emission: 485 nm). Percentage of flTau disaggregation was then calculated and the half maximal effective concentration (EC50) was determined using GraphPad Prism version 8 (GraphPad Software) assuming a one-binding site fitting model, see Table 3 and Table 4.
With `c1ccc2c(C3CCN(c4cc5nc(N6CCOCC6)oc5cn4)CC3)n[nH]c2c1` [Example 45, 6-(4-(1H-indazol-3-yl)piperidin-1-yl)-2-morpholinooxazolo[5,4-c]pyridine], the pEC50 (commonly the negative decadic logarithm of the EC50, by convention in mol/L) is 5.00 to 6.00.

Consider `C(#Cc1n[nH]c2ccccc12)c1ccc2oc(N3CCOCC3)nc2c1` [Example 5, 5-((1H-indazol-3-yl)ethynyl)-2-morpholinobenzo[d]oxazole], for which the pEC50 is greater than 6.00.

Consider `Cn1cc(C2CCN(c3ccc4sc(N5CCOCC5)nc4c3)C2)c2cc(F)cnc21` (stereo not shown) [Example 95, 4-(5-(3-(5-fluoro-1-methyl-1H-pyrrolo[2,3-b]pyridin-3-yl)pyrrolidin-1-yl)benzo[d]thiazol-2-yl)morpholine], for which the pEC50 was 5.00 to 6.00.

As for `c1ccc2c(N3CCN(c4ccc5oc(N6CCOCC6)nc5c4)CC3)n[nH]c2c1` [Example 79, 5-(4-(1H-indazol-3-yl)piperazin-1-yl)-2-morpholinobenzo[d]oxazole], the pEC50 is greater than 6.00.

For `c1ccc2c(-c3cnn(-c4ccc5oc(N6CCOCC6)nc5c4)c3)n[nH]c2c1` [Example 8, 5-(4-(1H-indazol-3-yl)-1H-pyrazol-1-yl)-2-morpholinobenzo[d]oxazole], the negative logarithm of the EC50 (pEC50) is greater than 6.00.

`Cn1cc(C2CCN(c3cnc4oc(N5CCOCC5)nc4c3)C2)c2cc(F)cnc21` (stereo not shown) [Example 85, 6-(3-(5-fluoro-1-methyl-1H-pyrrolo[2,3-b]pyridin-3-yl)pyrrolidin-1-yl)-2-morpholinooxazolo[5,4-b]pyridine]: the pEC50 was greater than 6.00.

With `Cc1cccc2c(C3CCN(c4ccc5oc(N6CCOCC6)nc5c4)CC3)n[nH]c12` [Example 78, 5-(4-(7-methyl-1H-indazol-3-yl)piperidin-1-yl)-2-morpholinobenzo[d]oxazole], the pEC50 is 5.00 to 6.00.

In the case of `COc1cccc2c(C3CCN(c4ccc5oc(N6CCOCC6)nc5c4)CC3)n[nH]c12` [Example 92, 5-(4-(7-methoxy-1H-indazol-3-yl)piperidin-1-yl)-2-morpholinobenzo[d]oxazole], the pEC50 is 5.00 to 6.00.

`Cc1cccc2[nH]nc(C3CCN(c4ccc5oc(N6CCOCC6)nc5c4)CC3)c12` [Example 93, 5-(4-(4-methyl-1H-indazol-3-yl)piperidin-1-yl)-2-morpholinobenzo[d]oxazole]: the pEC50 is 5.00 to 6.00.

Consider `Cn1cc(C2CCN(c3ccc4nc(N5CCOCC5)oc4c3)C2)c2cc(F)cnc21` (stereo not shown) [Example 89, 6-(3-(5-fluoro-1-methyl-1H-pyrrolo[2,3-b]pyridin-3-yl)pyrrolidin-1-yl)-2-morpholinobenzo[d]oxazole], for which the pEC50 was greater than 6.00.

For `COC1CCN(c2nc3cc(N4CCC(c5n[nH]c6ccccc56)CC4)ccc3o2)CC1` [Example 80, 5-(4-(1H-indazol-3-yl)piperidin-1-yl)-2-(4-methoxypiperidin-1-yl)benzo[d]oxazole], the pEC50 is 5.00 to 6.00.

With `c1ccn2c(C3CCN(c4ccc5oc(N6CCOCC6)nc5c4)CC3)cnc2c1` [Example 25, 5-(4-(imidazo[1,2-a]pyridin-3-yl)piperidin-1-yl)-2-morpholinobenzo[d]oxazole], the pEC50 is 5.00 to 6.00.

For the compound `Fc1cccc2c(C3CCN(c4ccc5oc(N6CCOCC6)nc5c4)CC3)n[nH]c12` [Example 75, 5-(4-(7-fluoro-1H-indazol-3-yl)piperidin-1-yl)-2-morpholinobenzo[d]oxazole], the pEC50 is greater than 6.00.

On to `Cc1ccc2c(C3CCN(c4ccc5oc(N6CCOCC6)nc5c4)CC3)n[nH]c2c1` [Example 77, 5-(4-(6-methyl-1H-indazol-3-yl)piperidin-1-yl)-2-morpholinobenzo[d]oxazole], for which the pEC50 is 5.00 to 6.00.

Take `Cn1cc(C2CCN(c3ccc4nc(N5CCOCC5)sc4c3)C2)c2cc(F)cnc21` (stereo not shown) [Example 82, 4-(6-(3-(5-fluoro-1-methyl-1H-pyrrolo[2,3-b]pyridin-3-yl)pyrrolidin-1-yl)benzo[d]thiazol-2-yl)morpholine]: the pEC50 is greater than 6.00.

As to `c1ccc2c(C3CCN(c4ccc5oc(N6CCOCC6)nc5c4)C3)c[nH]c2c1` (stereo not shown) [Example 39, 5-(3-(1H-indol-3-yl)pyrrolidin-1-yl)-2-morpholinobenzo[d]oxazole], the pEC50 is 5.00 to 6.00.
